Measured values as given in the supplement of paper PMC13207355.
Where a name gives a salt, the structure may show the parent alone.

Experiments:
Details in all cases: exposure time: 72 h
[1] = test system: E57 (patient-derived glioblastoma stem cells of mesenchymal subtype); assay: surviving fraction (nuclei count normalised to DMSO); higher = more cells surviving (less toxic)
[2] = test system: E31 (patient-derived glioblastoma stem cells of proneural subtype); assay: as above
[3] = test system: E21 (patient-derived glioblastoma stem cells of mesenchymal subtype); assay: as above
[4] = test system: FT3469 (normal neural stem cell line); assay: as above
[5] = test system: E34 (patient-derived glioblastoma stem cells of proneural subtype); assay: as above
[6] = test system: E28 (patient-derived glioblastoma stem cells of classical subtype); assay: as above
[7] = test system: E13 (patient-derived glioblastoma stem cells of classical subtype); assay: as above
[8] = test system: E57; assay: phenotypic distance (Euclidean, principal components) from DMSO controls (arbitrary units); higher = stronger morphological change
[9] = test system: E31; assay: as above
[10] = test system: E21; assay: as above
[11] = test system: FT3469; assay: as above
[12] = test system: E34; assay: as above
[13] = test system: E28; assay: as above
[14] = test system: E13; assay: as above
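Throughout, for phenotypic distance (Euclidean, principal components) from DMSO controls: cell Painting imaging in 384-well plates, CellProfiler features reduced to at least 20 principal components, Euclidean distance versus same-plate DMSO vehicle wells (0.1% v/v), median over six images per well.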
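Throughout, for surviving fraction (nuclei count normalised to DMSO): nuclei counted by high-content imaging of Hoechst-stained cells in laminin-coated 384-well plates, relative to 0.1% DMSO vehicle wells, with staurosporine as cell-death control.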

## CC(C)NCC(O)c1ccc(O)c(O)c1 (stereo unspecified) [Isoproterenol hydrochloride]
[1]; 4.1 nM
  surviving fraction: 1.01
[1]; 12.3 nM
  surviving fraction: 0.941
[1]; 37 nM
  surviving fraction: 0.999
[1]; 111.1 nM
  surviving fraction: 0.974
[1]; 333.3 nM
  surviving fraction: 1.12
[1]; 1000 nM
  surviving fraction: 1.14
[1]; 3000 nM
  surviving fraction: 1.11
[2]; 4.1 nM
  surviving fraction: 0.999
[2]; 12.3 nM
  surviving fraction: 1.05
[2]; 37 nM
  surviving fraction: 0.967
[2]; 111.1 nM
  surviving fraction: 0.989
[2]; 333.3 nM
  surviving fraction: 1.02
[2]; 1000 nM
  surviving fraction: 1.27
[2]; 3000 nM
  surviving fraction: 1.24
[3]; 4.1 nM
  surviving fraction: 0.983
[3]; 12.3 nM
  surviving fraction: 0.836
[3]; 37 nM
  surviving fraction: 0.946
[3]; 111.1 nM
  surviving fraction: 0.954
[3]; 333.3 nM
  surviving fraction: 0.957
[3]; 1000 nM
  surviving fraction: 1.03
[3]; 3000 nM
  surviving fraction: 0.989
[4]; 4.1 nM
  surviving fraction: 0.975
[4]; 12.3 nM
  surviving fraction: 1.04
[4]; 37 nM
  surviving fraction: 0.928
[4]; 111.1 nM
  surviving fraction: 1.15
[4]; 333.3 nM
  surviving fraction: 1.18
[4]; 1000 nM
  surviving fraction: 1.04
[4]; 3000 nM
  surviving fraction: 1.1
[5]; 4.1 nM
  surviving fraction: 1.03
[5]; 12.3 nM
  surviving fraction: 1
[5]; 37 nM
  surviving fraction: 1.13
[5]; 111.1 nM
  surviving fraction: 1.09
[5]; 333.3 nM
  surviving fraction: 1.15
[5]; 1000 nM
  surviving fraction: 1.11
[5]; 3000 nM
  surviving fraction: 1.11
[6]; 4.1 nM
  surviving fraction: 1.14
[6]; 12.3 nM
  surviving fraction: 1.19
[6]; 37 nM
  surviving fraction: 1.05
[6]; 111.1 nM
  surviving fraction: 1.09
[6]; 333.3 nM
  surviving fraction: 1.17
[6]; 1000 nM
  surviving fraction: 1.1
[6]; 3000 nM
  surviving fraction: 1.22
[7]; 4.1 nM
  surviving fraction: 0.935
[7]; 12.3 nM
  surviving fraction: 0.961
[7]; 37 nM
  surviving fraction: 1.01
[7]; 111.1 nM
  surviving fraction: 0.949
[7]; 333.3 nM
  surviving fraction: 0.974
[7]; 1000 nM
  surviving fraction: 0.842
[7]; 3000 nM
  surviving fraction: 1
[8]; 4.1 nM
  phenotypic distance: 0.878
[8]; 12.3 nM
  phenotypic distance: 0.696
[8]; 37 nM
  phenotypic distance: 0.871
[8]; 111.1 nM
  phenotypic distance: 1.09
[8]; 333.3 nM
  phenotypic distance: 1.1
[8]; 1000 nM
  phenotypic distance: 3.04
[8]; 3000 nM
  phenotypic distance: 1.28
[9]; 4.1 nM
  phenotypic distance: 3.31
[9]; 12.3 nM
  phenotypic distance: 0.604
[9]; 37 nM
  phenotypic distance: 0.63
[9]; 111.1 nM
  phenotypic distance: 0.645
[9]; 333.3 nM
  phenotypic distance: 0.706
[9]; 1000 nM
  phenotypic distance: 0.745
[9]; 3000 nM
  phenotypic distance: 0.88
[10]; 4.1 nM
  phenotypic distance: 1.03
[10]; 12.3 nM
  phenotypic distance: 0.961
[10]; 37 nM
  phenotypic distance: 0.559
[10]; 111.1 nM
  phenotypic distance: 0.37
[10]; 333.3 nM
  phenotypic distance: 0.707
[10]; 1000 nM
  phenotypic distance: 0.442
[10]; 3000 nM
  phenotypic distance: 0.786
[11]; 4.1 nM
  phenotypic distance: 1.05
[11]; 12.3 nM
  phenotypic distance: 0.977
[11]; 37 nM
  phenotypic distance: 1.54
[11]; 111.1 nM
  phenotypic distance: 0.756
[11]; 333.3 nM
  phenotypic distance: 1.08
[11]; 1000 nM
  phenotypic distance: 0.765
[11]; 3000 nM
  phenotypic distance: 1.18
[12]; 4.1 nM
  phenotypic distance: 0.806
[12]; 12.3 nM
  phenotypic distance: 0.933
[12]; 37 nM
  phenotypic distance: 0.861
[12]; 111.1 nM
  phenotypic distance: 0.633
[12]; 333.3 nM
  phenotypic distance: 0.9
[12]; 1000 nM
  phenotypic distance: 0.781
[12]; 3000 nM
  phenotypic distance: 0.963
[13]; 4.1 nM
  phenotypic distance: 1.26
[13]; 12.3 nM
  phenotypic distance: 0.749
[13]; 37 nM
  phenotypic distance: 0.577
[13]; 111.1 nM
  phenotypic distance: 0.661
[13]; 333.3 nM
  phenotypic distance: 0.903
[13]; 1000 nM
  phenotypic distance: 0.652
[13]; 3000 nM
  phenotypic distance: 0.87
[14]; 4.1 nM
  phenotypic distance: 1.71
[14]; 12.3 nM
  phenotypic distance: 1.34
[14]; 37 nM
  phenotypic distance: 1.11
[14]; 111.1 nM
  phenotypic distance: 0.927
[14]; 333.3 nM
  phenotypic distance: 0.863
[14]; 1000 nM
  phenotypic distance: 0.656
[14]; 3000 nM
  phenotypic distance: 0.895

## CC(C)CC(=O)N[C@H](C(=O)N[C@H](C(=O)N[C@@H](CC(C)C)[C@@H](O)CC(=O)N[C@@H](C)C(=O)N[C@@H](CC(C)C)[C@@H](O)CC(=O)O)C(C)C)C(C)C [Pepstatin A]
[1]; 4.1 nM
  surviving fraction: 1.04
[1]; 12.3 nM
  surviving fraction: 1.08
[1]; 37 nM
  surviving fraction: 1.01
[1]; 111.1 nM
  surviving fraction: 1.02
[1]; 333.3 nM
  surviving fraction: 1.11
[1]; 1000 nM
  surviving fraction: 0.978
[1]; 3000 nM
  surviving fraction: 0.901
[2]; 4.1 nM
  surviving fraction: 0.988
[2]; 12.3 nM
  surviving fraction: 1.1
[2]; 37 nM
  surviving fraction: 1
[2]; 111.1 nM
  surviving fraction: 0.89
[2]; 333.3 nM
  surviving fraction: 0.936
[2]; 1000 nM
  surviving fraction: 0.912
[2]; 3000 nM
  surviving fraction: 0.801
[3]; 4.1 nM
  surviving fraction: 1.08
[3]; 12.3 nM
  surviving fraction: 1.07
[3]; 37 nM
  surviving fraction: 1.01
[3]; 111.1 nM
  surviving fraction: 1.05
[3]; 333.3 nM
  surviving fraction: 0.985
[3]; 1000 nM
  surviving fraction: 0.986
[3]; 3000 nM
  surviving fraction: 0.943
[4]; 4.1 nM
  surviving fraction: 0.981
[4]; 12.3 nM
  surviving fraction: 1.14
[4]; 37 nM
  surviving fraction: 1.08
[4]; 111.1 nM
  surviving fraction: 1.05
[4]; 333.3 nM
  surviving fraction: 1.07
[4]; 1000 nM
  surviving fraction: 0.993
[4]; 3000 nM
  surviving fraction: 1.07
[5]; 4.1 nM
  surviving fraction: 1.05
[5]; 12.3 nM
  surviving fraction: 1.18
[5]; 37 nM
  surviving fraction: 0.988
[5]; 111.1 nM
  surviving fraction: 1.19
[5]; 333.3 nM
  surviving fraction: 0.959
[5]; 1000 nM
  surviving fraction: 1.03
[5]; 3000 nM
  surviving fraction: 0.906
[6]; 4.1 nM
  surviving fraction: 0.953
[6]; 12.3 nM
  surviving fraction: 1.07
[6]; 37 nM
  surviving fraction: 1.14
[6]; 111.1 nM
  surviving fraction: 1.15
[6]; 333.3 nM
  surviving fraction: 1.06
[6]; 1000 nM
  surviving fraction: 0.989
[6]; 3000 nM
  surviving fraction: 0.92
[7]; 4.1 nM
  surviving fraction: 1.06
[7]; 12.3 nM
  surviving fraction: 1.08
[7]; 37 nM
  surviving fraction: 0.987
[7]; 111.1 nM
  surviving fraction: 0.969
[7]; 333.3 nM
  surviving fraction: 0.939
[7]; 1000 nM
  surviving fraction: 1.07
[7]; 3000 nM
  surviving fraction: 0.973
[8]; 4.1 nM
  phenotypic distance: 0.859
[8]; 12.3 nM
  phenotypic distance: 0.774
[8]; 37 nM
  phenotypic distance: 0.554
[8]; 111.1 nM
  phenotypic distance: 0.499
[8]; 333.3 nM
  phenotypic distance: 1.2
[8]; 1000 nM
  phenotypic distance: 1.56
[8]; 3000 nM
  phenotypic distance: 1.57
[9]; 4.1 nM
  phenotypic distance: 0.911
[9]; 12.3 nM
  phenotypic distance: 0.626
[9]; 37 nM
  phenotypic distance: 0.894
[9]; 111.1 nM
  phenotypic distance: 0.552
[9]; 333.3 nM
  phenotypic distance: 0.816
[9]; 1000 nM
  phenotypic distance: 0.799
[9]; 3000 nM
  phenotypic distance: 0.946
[10]; 4.1 nM
  phenotypic distance: 0.741
[10]; 12.3 nM
  phenotypic distance: 0.806
[10]; 37 nM
  phenotypic distance: 0.616
[10]; 111.1 nM
  phenotypic distance: 0.484
[10]; 333.3 nM
  phenotypic distance: 0.724
[10]; 1000 nM
  phenotypic distance: 0.99
[10]; 3000 nM
  phenotypic distance: 0.905
[11]; 4.1 nM
  phenotypic distance: 0.569
[11]; 12.3 nM
  phenotypic distance: 0.775
[11]; 37 nM
  phenotypic distance: 0.359
[11]; 111.1 nM
  phenotypic distance: 0.585
[11]; 333.3 nM
  phenotypic distance: 0.718
[11]; 1000 nM
  phenotypic distance: 1.15
[11]; 3000 nM
  phenotypic distance: 0.856
[12]; 4.1 nM
  phenotypic distance: 0.998
[12]; 12.3 nM
  phenotypic distance: 1.15
[12]; 37 nM
  phenotypic distance: 0.793
[12]; 111.1 nM
  phenotypic distance: 1.47
[12]; 333.3 nM
  phenotypic distance: 1.37
[12]; 1000 nM
  phenotypic distance: 1.44
[12]; 3000 nM
  phenotypic distance: 0.964
[13]; 4.1 nM
  phenotypic distance: 0.473
[13]; 12.3 nM
  phenotypic distance: 0.719
[13]; 37 nM
  phenotypic distance: 0.825
[13]; 111.1 nM
  phenotypic distance: 1.73
[13]; 333.3 nM
  phenotypic distance: 0.834
[13]; 1000 nM
  phenotypic distance: 1.64
[13]; 3000 nM
  phenotypic distance: 0.785
[14]; 4.1 nM
  phenotypic distance: 3.07
[14]; 12.3 nM
  phenotypic distance: 0.418
[14]; 37 nM
  phenotypic distance: 0.54
[14]; 111.1 nM
  phenotypic distance: 2.55
[14]; 333.3 nM
  phenotypic distance: 0.565
[14]; 1000 nM
  phenotypic distance: 1.06
[14]; 3000 nM
  phenotypic distance: 1.04
